# Test results from EP0983294B1, “B-RING E[…] SULPHATES” (Wyeth, priority 1997, dated 1998).
# System: Immature rats
# Test: In vivo uterotropic activity
# Settings: 0.2 and 2 mg/kg for three days (S.C.)
# Experimental: Immature rats were treated with doses of 0.2 and 2 mg/kg 5,7,9-estratriene-3β,17β-diol for three days (S.C.) as well as additional groups (n=6) of rats treated with 0.5 µg ethinyl estradiol and vehicle as positive and negative controls, respectively.
smiles,measurement,value
"C[C@]12CCc3c(ccc4c3CC[C@H](O)C4)[C@@H]1CC[C@@H]2O [5,7,9-estratriene-3β,17β-diol]",uterine weight,uterine weight gains at both concentrations
